Measurements: patent US12240839B2, “Cyclobutyl dihydroquinoline sulfonamide compounds” (AMGEN INC., priority 2020, dated 2025)

tested on: CYP3A4; assay: Human CYP3A4 induction assay (mRNA, cryopreserved human hepatocytes); conditions: 10 uM test compound, 72 hours, percent of control (rifampin positive control)
Method: Human CYP3A4 Induction Assay
Cryopreserved human hepatocytes were seeded in 96-well collagen coated plates at 70,000 cells per well in hepatocyte plating media (HPM, final concentrations: 1× Dulbecco's Modified Eagle's Medium, 0.1 μM dexamethasone, 10% fetal bovine serum, 1×ITS, 1×PSG) followed by incubation at 37° C. under 5% CO2 and 90% relative humidity for 2 days to allow hepatocytes to form a confluent layer. On Day 3, hepatocytes were treated with either test compound or rifampin (20 μM, positive control for CYP3A induction) prepared in hepatocyte incubation media ((HIM, final concentrations: 1× William's Medium E, 0.1 μM dexamethasone, 1×ITS, 1×PSG). Treatment was performed for 72 hours with either 2 concentrations (2 μM or 10 μM) or a range of concentrations (0.001 μM to 100 μM) of the test compound to obtain full dose-response curve. Fresh media containing the relevant concentrations of the test compound was replaced every day until the samples were processed. After 72 hours of incubation, samples were processed for mRNA analysis using bDNA technology using manufacturer's instructions (Affymetrix, Fremont, CA). Cell viability was tested at the end of the experiment using MTT assay kit (Roche Diagnostics, Basel, Switzerland). Data was analyzed and presented as percent of control (POC) and Emax and EC50 obtained when appropriate according to guidance from Center for Drug Evaluation and Research (CDER), 2006, Guidance for Industry, Drug Interaction Studies—Study Design, Data Analysis, and Implications for Dosing and Labeling.

Row | Hu CYP3A4 mRNA Induction (10 uM POC) | Compound
1 | 14.71% | COc1cc(C2CC(F)(F)C2)c(F)cc1-n1c(=O)ccc2cc(S(=O)(=O)Nc3ccon3)ccc21 (atropisomer, axis not shown; (P)) [Example 4, (P)-1-(4-(3,3-difluorocyclobutyl)-5-fluoro-2-methoxyphenyl)-N-(isoxazol-3-yl)-2-oxo-1,2-dihydroquinoline-6-sulfonamide]
2 | 5.66% | COc1cc([C@H]2C[C@](F)(C(F)(F)F)C2)c(Cl)cc1-n1c(=O)ccc2cc(S(=O)(=O)Nc3ccon3)ccc21 (atropisomer, axis not shown; (P)) [Example 10, cis-(P)-1-(5-chloro-4-(3-fluoro-3-(trifluoromethyl)cyclobutyl)-2-methoxyphenyl)-N-(isoxazol-3-yl)-2-oxo-1,2-dihydroquinoline-6-sulfonamide]
3 | 7.29% | COc1cc([C@H]2C[C@@](F)(C(F)(F)F)C2)c(Cl)cc1-n1c(=O)ccc2cc(S(=O)(=O)Nc3ccon3)ccc21 (atropisomer, axis not shown; (P)) [Example 11, trans-(P)-1-(5-chloro-4-(3-fluoro-3-(trifluoromethyl)cyclobutyl)-2-methoxyphenyl)-N-(isoxazol-3-yl)-2-oxo-1,2-dihydroquinoline-6-sulfonamide]
4 | 18.3% | COc1cc(C2CCC2)c(F)cc1-n1c(=O)ccc2cc(S(=O)(=O)Nc3ccon3)ccc21 (atropisomer, axis not shown; (P)) [Example 14, (P)-1-(4-cyclobutyl-5-fluoro-2-methoxyphenyl)-N-(isoxazol-3-yl)-2-oxo-1,2-dihydroquinoline-6-sulfonamide]
5 | 130.1% | COc1cc([C@H]2C[C@@H](C(F)(F)F)C2)c(Cl)cc1-n1c(=O)ccc2cc(S(=O)(=O)Nc3ncccn3)ccc21 (atropisomer, axis not shown; (P)) [Example 16, cis-(P)-1-(5-chloro-2-methoxy-4-(3-(trifluoromethyl)cyclobutyl)phenyl)-2-oxo-N-(pyrimidin-2-yl)-1,2-dihydroquinoline-6-sulfonamide]
6 | 61.91% | COc1cc([C@H]2C[C@H](C(F)(F)F)C2)c(Cl)cc1-n1c(=O)ccc2cc(S(=O)(=O)Nc3ncccn3)ccc21 (atropisomer, axis not shown; (P)) [Example 17, trans-(P)-1-(5-chloro-2-methoxy-4-(3-(trifluoromethyl)cyclobutyl)phenyl)-2-oxo-N-(pyrimidin-2-yl)-1,2-dihydroquinoline-6-sulfonamide]
7 | 60.73% | COc1cc([C@H]2C[C@H](C(F)(F)F)C2)c(Cl)cc1-n1c(=O)ccc2cc(S(=O)(=O)Nc3cccnn3)ccc21 (atropisomer, axis not shown; (P)) [Example 19, trans-(P)-1-(5-chloro-2-methoxy-4-(3-(trifluoromethyl)cyclobutyl)phenyl)-2-oxo-N-(pyridazin-3-yl)-1,2-dihydroquinoline-6-sulfonamide]
8 | 42.22% | COc1cc([C@H]2C[C@H](C(F)(F)F)C2)c(C)cc1-n1c(=O)ccc2cc(S(=O)(=O)Nc3ccon3)ccc21 (atropisomer, axis not shown; (P)) [Example 20, trans-(P)—N-(isoxazol-3-yl)-1-(2-methoxy-5-methyl-4-(3-(trifluoromethyl)cyclobutyl)phenyl)-2-oxo-1,2-dihydroquinoline-6-sulfonamide]
9 | 17.07% | COc1cc(C2CCC2)c(Cl)cc1-n1c(=O)ccc2cc(S(=O)(=O)Nc3ccon3)ccc21 (atropisomer, axis not shown; (P)) [Example 21, (P)-1-(5-chloro-4-cyclobutyl-2-methoxyphenyl)-N-(isoxazol-3-yl)-2-oxo-1,2-dihydroquinoline-6-sulfonamide]
10 | 24.14% | COc1cc(C2CCC2)c(C)cc1-n1c(=O)ccc2cc(S(=O)(=O)Nc3ccon3)ccc21 (atropisomer, axis not shown; (P)) [Example 22, (P)-1-(4-cyclobutyl-2-methoxy-5-methylphenyl)-N-(isoxazol-3-yl)-2-oxo-1,2-dihydroquinoline-6-sulfonamide]
11 | 88% | COc1cc(C2CCC2)c(Cl)cc1-n1c(=O)ccc2cc(S(=O)(=O)Nc3ncco3)ccc21 (atropisomer, axis not shown; (P)) [Example 32, (P)-1-(5-chloro-4-cyclobutyl-2-methoxyphenyl)-N-(oxazol-2-yl)-2-oxo-1,2-dihydroquinoline-6-sulfonamide]
12 | 13.33% | COc1cc([C@H]2C[C@H](C(F)(F)F)C2)ccc1-n1c(=O)ccc2cc(S(=O)(=O)Nc3ccon3)ccc21 (atropisomer, axis not shown; (P)) [Example 35, trans-(P)—N-(isoxazol-3-yl)-1-(2-methoxy-4-(3-(trifluoromethyl)cyclobutyl)phenyl)-2-oxo-1,2-dihydroquinoline-6-sulfonamide]

The next lines start with the molecule.

Row | Compound | Hu CYP3A4 mRNA Induction (10 uM POC)
13 | COc1cc([C@H]2C[C@H](C(F)(F)F)C2)c(F)cc1-n1c(=O)ccc2cc(S(=O)(=O)Nc3ncccn3)ccc21 (atropisomer, axis not shown; (P)) [Example 15, trans-(P)-1-(5-fluoro-2-methoxy-4-(3-(trifluoromethyl)cyclobutyl)phenyl)-2-oxo-N-(pyrimidin-2-yl)-1,2-dihydroquinoline-6-sulfonamide] | 36%
14 | COc1cc(C2CCC2)c(Cl)cc1-n1c(=O)ccc2cc(S(=O)(=O)Nc3ncccn3)ccc21 (atropisomer, axis not shown; (P)) [Example 18, (P)-1-(5-chloro-4-cyclobutyl-2-methoxyphenyl)-2-oxo-N-(pyrimidin-2-yl)-1,2-dihydroquinoline-6-sulfonamide] | 20.78%
15 | COc1cc(C2CCC2)c(F)cc1-n1c(=O)ccc2cc(S(=O)(=O)Nc3cccnn3)ccc21 (atropisomer, axis not shown; (P)) [Example 23, (P)-1-(4-cyclobutyl-5-fluoro-2-methoxyphenyl)-2-oxo-N-(pyridazin-3-yl)-1,2-dihydroquinoline-6-sulfonamide] | 14.37%
16 | COc1cc(C2CCC2)c(F)cc1-n1c(=O)ccc2cc(S(=O)(=O)Nc3ncco3)ccc21 (atropisomer, axis not shown; (P)) [Example 24, (P)-1-(4-cyclobutyl-5-fluoro-2-methoxyphenyl)-N-(oxazol-2-yl)-2-oxo-1,2-dihydroquinoline-6-sulfonamide] | 89.26%
17 | COc1cc(C2CCC2)ccc1-n1c(=O)ccc2cc(S(=O)(=O)Nc3ccon3)ccc21 (atropisomer, axis not shown; (P)) [Example 25, (P)-1-(4-cyclobutyl-2-methoxyphenyl)-N-(isoxazol-3-yl)-2-oxo-1,2-dihydroquinoline-6-sulfonamide] | 18.57%
18 | COc1cc(C2CCC2)ccc1-n1c(=O)ccc2cc(S(=O)(=O)Nc3ncccn3)ccc21 (atropisomer, axis not shown; (P)) [Example 26, (P)-1-(4-cyclobutyl-2-methoxyphenyl)-2-oxo-N-(pyrimidin-2-yl)-1,2-dihydroquinoline-6-sulfonamide] | 14.58%
19 | COc1cc(C2CCC2)c(C)cc1-n1c(=O)ccc2cc(S(=O)(=O)Nc3ncccn3)ccc21 (atropisomer, axis not shown; (P)) [Example 27, (P)-1-(4-Cyclobutyl-2-Methoxy-5-Methylphenyl)-2-Oxo-N-(Pyrimidin-2-Yl)-1,2-Dihydroquinoline-6-Sulfonamide] | 48.14%
20 | COc1cc(C2CCC2)c(F)cc1-n1c(=O)ccc2cc(S(=O)(=O)Nc3ncccn3)ccc21 (atropisomer, axis not shown; (P)) [Example 28, (P)-1-(4-cyclobutyl-5-fluoro-2-methoxyphenyl)-2-oxo-N-(pyrimidin-2-yl)-1,2-dihydroquinoline-6-sulfonamide] | 60.29%
21 | COc1cc(C2CCC2)ccc1-n1c(=O)ccc2cc(S(=O)(=O)Nc3ncco3)ccc21 (atropisomer, axis not shown; (P)) [Example 29, (P)-1-(4-cyclobutyl-2-methoxyphenyl)-N-(oxazol-2-yl)-2-oxo-1,2-dihydroquinoline-6-sulfonamide] | 34.63%
22 | COc1cc(C2CCC2)c(C)cc1-n1c(=O)ccc2cc(S(=O)(=O)Nc3ncco3)ccc21 (atropisomer, axis not shown; (P)) [Example 34, (P)-1-(4-cyclobutyl-2-methoxy-5-methylphenyl)-N-(oxazol-2-yl)-2-oxo-1,2-dihydroquinoline-6-sulfonamide] | 69.54%
23 | COc1cc([C@H]2C[C@H](C(F)(F)F)C2)ccc1-n1c(=O)ccc2cc(S(=O)(=O)Nc3ncccn3)ccc21 (atropisomer, axis not shown; (P)) [Example 36, trans-(P)-1-(2-methoxy-4-((1R,3R)-3-(trifluoromethyl)cyclobutyl)phenyl)-2-oxo-N-(pyrimidin-2-yl)-1,2-dihydroquinoline-6-sulfonamide] | 19.16%
24 | COc1cc([C@H]2C[C@H](C(F)(F)F)C2)ccc1-n1c(=O)ccc2cc(S(=O)(=O)Nc3cccnn3)ccc21 (atropisomer, axis not shown; (P)) [Example 38, trans-(P)-1-(2-methoxy-4-(3-(trifluoromethyl)cyclobutyl)phenyl)-2-oxo-N-(pyridazin-3-yl)-1,2-dihydroquinoline-6-sulfonamide] | 4.43%
25 | COc1cc([C@H]2C[C@H](C(F)(F)F)C2)c(F)cc1-n1c(=O)ccc2cc(S(=O)(=O)Nc3cccnn3)ccc21 (atropisomer, axis not shown; (P)) [Example 39, trans-(P)-1-(5-fluoro-2-methoxy-4-(3-(trifluoromethyl)cyclobutyl)phenyl)-2-oxo-N-(pyridazin-3-yl)-1,2-dihydroquinoline-6-sulfonamide] | 21.68%
26 | COc1cc([C@H]2C[C@H](C(F)(F)F)C2)c(F)cc1-n1c(=O)ccc2cc(S(=O)(=O)Nc3ccon3)c(F)cc21 (atropisomer, axis not shown; (P)) [Example 40, (P)-7-fluoro-1-(5-fluoro-2-methoxy-4-((1R,3R)-3-(trifluoromethyl)cyclobutyl)phenyl)-N-(isoxazol-3-yl)-2-oxo-1,2-dihydroquinoline-6-sulfonamide] | 74.43%
